Test results reported in publication doi:10.1101/2025.01.28.635346v1 (bioRxiv, 2025).
Bridge positions count the residues as written; N and C are the ends. Peptide text beside a SMILES is read from it.

Columns and labels:
integrin αvβ3 [1] = target: T1, integrin αvβ3 (Homo sapiens, UniProt P05106+P06756); assay: AlphaLISA competition assay vs LAP, biotinylated αvβ3; format: binding
integrin αvβ6 [2] = target: T2, integrin αvβ6 (Homo sapiens, UniProt P06756+P18564); assay: AlphaLISA competition assay vs LAP, biotinylated αvβ6; format: binding
integrin αvβ8 [3] = target: T3, integrin αvβ8 (Homo sapiens, UniProt P06756+P26012); assay: AlphaLISA competition assay vs LAP, biotinylated αvβ8; format: binding
integrin αvβ3 [4] = target: T1, integrin αvβ3; assay: ELISA competition assay, integrin αvβ3; format: binding
integrin αvβ6 [5] = target: T2, integrin αvβ6; assay: ELISA competition assay, integrin αvβ6 binding to LAP
integrin αvβ8 [6] = target: T3, integrin αvβ8; assay: ELISA competition assay, integrin αvβ8 binding to LAP
[7] = αvβ6 IC50, ELISA competition vs LAP, mean, n ≥ 3

| Structure (SMILES) | IC50 (integrin αvβ3 [1]) [µM] | IC50 (integrin αvβ6 [2]) [µM] | IC50 (integrin αvβ8 [3]) [µM] | IC50 (integrin αvβ3 [4]) [µM] | IC50 (integrin αvβ6 [5]; [7]) [µM] | IC50 (integrin αvβ8 [6]) [µM] | IC50 (integrin αvβ6 [5]) [µM] |
| --- | --- | --- | --- | --- | --- | --- | --- |
| CC[C@H](C)[C@H](NC(=O)CNC(=O)[C@@H](NC(=O)[C@H](Cc1ccccc1)NC(=O)[C@H](Cc1ccc(O)cc1)NC(=O)[C@@H]1CCC(=O)NCC(=O)NCC(=O)N[C@@H](C)C(=O)NCC(=O)N[C@@H](Cc2cnc[nH]2)C(=O)N[C@@H](C(C)C)C(=O)N2CCC[C@H]2C(=O)N1)C(C)C)C(=O)NCC(=O)N[C@H](C(=O)N1CCC[C@H]1C(=O)N[C@H](C(=O)N[C@@H](CO)C(=O)N[C@@H](Cc1ccccc1)C(=O)N[C@@H](Cc1ccc(O)cc1)C(=O)NCC(=O)O)[C@@H](C)CC)[C@@H](C)O [lassotide 1, MccJ25, reference compound] (GGAGHVPEYFVGIGTPISFYG-OH; lactam N-8) | > 10 | > 10 | > 10 |  |  |  |  |
| CC[C@H](C)[C@H](NC(=O)[C@@H]1CCCN1C(=O)[C@H](CC(C)C)NC(=O)[C@H](CC(=O)O)NC(=O)CNC(=O)[C@H](CCCNC(=N)N)NC(=O)[C@@H](NC(=O)[C@H](Cc1ccccc1)NC(=O)[C@H](Cc1ccc(O)cc1)NC(=O)[C@@H]1CCC(=O)NCC(=O)NCC(=O)N[C@@H](C)C(=O)NCC(=O)N[C@@H](Cc2c[nH]cn2)C(=O)N[C@@H](C(C)C)C(=O)N2CCC[C@H]2C(=O)N1)C(C)C)C(=O)N[C@@H](CO)C(=O)N[C@@H](Cc1ccccc1)C(=O)N[C@@H](Cc1ccc(O)cc1)C(=O)NCC(=O)O [lassotide 2] (GGAGHVPEYFVRGDLPISFYG-OH; lactam N-8; C-terminus assumed) | 0.001 | 0.263 |  |  |  |  |  |
| CC[C@H](C)[C@H](NC(=O)[C@@H]1CCCN1C(=O)[C@H](Cc1ccccc1)NC(=O)[C@H](CC(=O)O)NC(=O)CNC(=O)[C@H](CCCNC(=N)N)NC(=O)[C@@H](NC(=O)[C@H](Cc1ccccc1)NC(=O)[C@H](Cc1ccc(O)cc1)NC(=O)[C@@H]1CCC(=O)NCC(=O)NCC(=O)N[C@@H](C)C(=O)NCC(=O)N[C@@H](Cc2c[nH]cn2)C(=O)N[C@@H](C(C)C)C(=O)N2CCC[C@H]2C(=O)N1)C(C)C)C(=O)N[C@@H](CO)C(=O)N[C@@H](Cc1ccccc1)C(=O)N[C@@H](Cc1ccc(O)cc1)C(=O)NCC(=O)O [lassotide 3] (GGAGHVPEYFVRGDFPISFYG-OH; lactam N-8; C-terminus assumed) | 0.001 | 0.253 | 0.295 |  |  |  |  |
| CC[C@H](C)[C@H](NC(=O)[C@@H]1CCCN1C(=O)[C@@H](NC(=O)[C@H](CC(C)C)NC(=O)[C@H](CC(=O)O)NC(=O)CNC(=O)[C@H](CCCNC(=N)N)NC(=O)[C@H](Cc1ccccc1)NC(=O)[C@H](Cc1ccc(O)cc1)NC(=O)[C@@H]1CCC(=O)NCC(=O)NCC(=O)N[C@@H](C)C(=O)NCC(=O)N[C@@H](Cc2c[nH]cn2)C(=O)N[C@@H](C(C)C)C(=O)N2CCC[C@H]2C(=O)N1)[C@@H](C)O)C(=O)N[C@@H](CO)C(=O)N[C@@H](Cc1ccccc1)C(=O)N[C@@H](Cc1ccc(O)cc1)C(=O)NCC(=O)O [lassotide 7] (GGAGHVPEYFRGDLTPISFYG-OH; lactam N-8; C-terminus assumed) | 0.571 | 2.04 | 0.485 |  |  |  |  |
| CC[C@H](C)[C@H](NC(=O)[C@@H]1CCCN1C(=O)[C@H](CC(C)C)NC(=O)[C@H](CC(=O)O)NC(=O)CNC(=O)[C@H](CCCNC(=N)N)NC(=O)[C@@H](NC(=O)[C@H](Cc1ccc(O)cc1)NC(=O)[C@@H]1CCC(=O)NCC(=O)NCC(=O)N[C@@H](C)C(=O)NCC(=O)N[C@@H](Cc2c[nH]cn2)C(=O)N[C@@H](C(C)C)C(=O)N2CCC[C@H]2C(=O)N1)C(C)C)C(=O)N[C@@H](CO)C(=O)N[C@@H](Cc1ccccc1)C(=O)N[C@@H](Cc1ccc(O)cc1)C(=O)NCC(=O)O [lassotide 12] (GGAGHVPEYVRGDLPISFYG-OH; lactam N-8; C-terminus assumed) |  |  |  | 0.001 | 0.177 | 0.475 |  |
| CC[C@H](C)[C@H](NC(=O)[C@@H]1CCCN1C(=O)[C@H](CC(C)C)NC(=O)[C@H](CC(=O)O)NC(=O)CNC(=O)[C@H](CCCNC(=N)N)NC(=O)[C@H](Cc1ccccc1)NC(=O)[C@H](Cc1ccc(O)cc1)NC(=O)[C@@H]1CCC(=O)NCC(=O)NCC(=O)N[C@@H](C)C(=O)NCC(=O)N[C@@H](Cc2c[nH]cn2)C(=O)N[C@@H](C(C)C)C(=O)N2CCC[C@H]2C(=O)N1)C(=O)N[C@@H](CO)C(=O)N[C@@H](Cc1ccccc1)C(=O)N[C@@H](Cc1ccc(O)cc1)C(=O)NCC(=O)O [lassotide 13] (GGAGHVPEYFRGDLPISFYG-OH; lactam N-8; C-terminus assumed) |  |  |  | 0.02 | 0.624 | 0.221 |  |
| CC[C@H](C)[C@@H]1NC(=O)[C@H]([C@@H](C)CC)NC(=O)[C@@H]2CCCN2C(=O)CNC(=O)[C@H](CC(=O)O)NC(=O)[C@H](CO)NC(=O)CNC(=O)CC[C@@H](C(=O)N[C@@H](Cc2ccccc2)C(=O)N[C@@H](Cc2ccccc2)C(=O)N[C@@H](CC(N)=O)C(=O)N2CCC[C@H]2C(=O)N[C@@H](CC(N)=O)C(=O)NCC(=O)N[C@H](C(=O)N[C@@H](CCSC)C(=O)N[C@@H](Cc2c[nH]cn2)C(=O)N[C@@H](Cc2ccc(O)cc2)C(=O)NCC(=O)O)C(C)C)NC1=O [lassotide 15, klebsidin, reference compound] (GSDGPIIEFFNPNGVMHYG-OH; lactam N-8; C-terminus assumed) |  |  |  | > 10 |  | > 10 | > 10 |
| CC[C@H](C)[C@@H]1NC(=O)[C@H]([C@@H](C)CC)NC(=O)[C@@H]2CCCN2C(=O)CNC(=O)[C@H](CC(=O)O)NC(=O)[C@H](CO)NC(=O)CNC(=O)CC[C@@H](C(=O)N[C@@H](Cc2ccccc2)C(=O)N[C@@H](CCCNC(=N)N)C(=O)NCC(=O)N[C@@H](CC(=O)O)C(=O)N[C@@H](CC(C)C)C(=O)NCC(=O)N[C@H](C(=O)N[C@@H](CCSC)C(=O)N[C@@H](Cc2c[nH]cn2)C(=O)N[C@@H](Cc2ccc(O)cc2)C(=O)NCC(=O)O)C(C)C)NC1=O [lassotide 16] (GSDGPIIEFRGDLGVMHYG-OH; lactam N-8; C-terminus assumed) |  |  |  | 1.06 | 0.03 | 0.214 |  |
| CC[C@H](C)[C@@H]1NC(=O)[C@H](CO)NC(=O)CC[C@@H](C(=O)N[C@@H](CO)C(=O)N[C@@H](CCSC)C(=O)N[C@@H](CO)C(=O)N[C@@H](CO)C(=O)N[C@@H](CCC(N)=O)C(=O)N[C@H](C(=O)N[C@@H](Cc2ccc(O)cc2)C(=O)N[C@@H](Cc2c[nH]c3ccccc23)C(=O)N2CCC[C@H]2C(=O)O)[C@@H](C)O)NC(=O)[C@H](CCCNC(=N)N)NC(=O)[C@H](CC(C)C)NC(=O)CNC(=O)[C@H](CO)NC(=O)[C@H](CC(=O)O)NC(=O)CNC1=O [lassotide 17, caulonodin V, reference compound] (SIGDSGLRESMSSQTYWP-OH; lactam N-9; C-terminus assumed) |  |  |  | > 10 | > 10 | > 10 |  |
| CC(C)C[C@H](NC(=O)[C@H](CC(=O)O)NC(=O)CNC(=O)[C@H](CCCNC(=N)N)NC(=O)[C@@H](NC(=O)[C@H](Cc1ccccc1)NC(=O)[C@H](Cc1ccc(O)cc1)NC(=O)[C@@H]1CCC(=O)NCC(=O)NCC(=O)N[C@@H](C)C(=O)NCC(=O)N[C@@H](Cc2c[nH]cn2)C(=O)N[C@@H](C(C)C)C(=O)N2CCC[C@H]2C(=O)N1)C(C)C)C(=O)N[C@@H](Cc1ccc(O)cc1)C(=O)N[C@@H](CO)C(=O)N[C@@H](Cc1ccccc1)C(=O)N[C@@H](Cc1ccc(O)cc1)C(=O)NCC(=O)O [lassotide 25] (GGAGHVPEYFVRGDLYSFYG-OH; lactam N-8; C-terminus assumed) |  | 0.295 | 0.205 |  |  |  |  |
| CC(C)C[C@H](NC(=O)[C@H](CC(=O)O)NC(=O)CNC(=O)[C@H](CCCNC(=N)N)NC(=O)[C@@H](NC(=O)[C@H](Cc1ccccc1)NC(=O)[C@H](Cc1ccc(O)cc1)NC(=O)[C@@H]1CCC(=O)NCC(=O)NCC(=O)N[C@@H](C)C(=O)NCC(=O)N[C@@H](Cc2c[nH]cn2)C(=O)N[C@@H](C(C)C)C(=O)N2CCC[C@H]2C(=O)N1)C(C)C)C(=O)N[C@@H](Cc1c[nH]c2ccccc12)C(=O)N[C@@H](CO)C(=O)N[C@@H](Cc1ccccc1)C(=O)N[C@@H](Cc1ccc(O)cc1)C(=O)NCC(=O)O [lassotide 26] (GGAGHVPEYFVRGDLWSFYG-OH; lactam N-8; C-terminus assumed) |  | 0.024 | 0.085 |  |  |  |  |
| CC(C)C[C@H](NC(=O)[C@H](CC(=O)O)NC(=O)CNC(=O)[C@H](CCCNC(=N)N)NC(=O)[C@@H](NC(=O)[C@H](Cc1ccccc1)NC(=O)[C@H](Cc1ccc(O)cc1)NC(=O)[C@@H]1CCC(=O)NCC(=O)NCC(=O)N[C@@H](C)C(=O)NCC(=O)N[C@@H](Cc2c[nH]cn2)C(=O)N[C@@H](C(C)C)C(=O)N2CCC[C@H]2C(=O)N1)C(C)C)C(=O)N[C@@H](CCC(=O)O)C(=O)N[C@@H](CO)C(=O)N[C@@H](Cc1ccccc1)C(=O)N[C@@H](Cc1ccc(O)cc1)C(=O)NCC(=O)O [lassotide 27] (GGAGHVPEYFVRGDLESFYG-OH; lactam N-8; C-terminus assumed) |  | 0.141 | 0.264 |  |  |  |  |
| CC[C@H](C)[C@H](NC(=O)[C@H](CC(C)C)NC(=O)[C@H](CC(=O)O)NC(=O)CNC(=O)[C@H](CCCNC(=N)N)NC(=O)[C@@H](NC(=O)[C@H](Cc1ccccc1)NC(=O)[C@H](Cc1ccc(O)cc1)NC(=O)[C@@H]1CCC(=O)NCC(=O)NCC(=O)N[C@@H](Cc2ccccc2)C(=O)NCC(=O)N[C@@H](Cc2c[nH]cn2)C(=O)N[C@@H](C(C)C)C(=O)N2CCC[C@H]2C(=O)N1)C(C)C)C(=O)N[C@@H](CO)C(=O)N[C@@H](Cc1ccccc1)C(=O)N[C@@H](Cc1ccc(O)cc1)C(=O)NCC(=O)O [lassotide 33] (GGFGHVPEYFVRGDLISFYG-OH; lactam N-8; C-terminus assumed) |  | 0.347 | 0.125 |  |  |  |  |
